Results: patent US12440537B1, “Compositions and methods for treating skin diseases, disorders, or conditions” (Washington University, priority 2020, dated 2025)
Ends that are not written are not given here.

Tests used:
[1] = molecular target: T1, vitamin D receptor (Mus musculus, UniProt P48281); assay: Nuclear localization of vitamin D receptor in MC903-treated keratinocytes; format: cell-based; design: endogenous in cells; host or cells: Ivl-/- keratinocytes; conditions: MC903 treated lvl-/- keratinocytes
T1 sequence (P48281 1-422): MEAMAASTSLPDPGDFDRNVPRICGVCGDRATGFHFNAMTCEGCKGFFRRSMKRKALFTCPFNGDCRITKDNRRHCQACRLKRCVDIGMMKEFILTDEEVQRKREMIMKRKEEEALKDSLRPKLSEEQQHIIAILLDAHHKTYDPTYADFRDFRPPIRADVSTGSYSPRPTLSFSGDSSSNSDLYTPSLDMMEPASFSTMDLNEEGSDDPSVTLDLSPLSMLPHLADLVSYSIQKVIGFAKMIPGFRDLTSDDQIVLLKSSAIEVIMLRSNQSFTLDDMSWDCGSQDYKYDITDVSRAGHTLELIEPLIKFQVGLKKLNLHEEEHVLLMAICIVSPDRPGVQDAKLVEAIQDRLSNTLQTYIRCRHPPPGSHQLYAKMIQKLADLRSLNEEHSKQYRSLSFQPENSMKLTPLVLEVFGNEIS

[2] = molecular target: T1, vitamin D receptor; assay: MC903 vitamin D receptor-mediated skin inflammation in WT and Involucrin (lvl) -/- mice; format: in vivo; design: from tissue; host or cells: skin of WT and Ivl-/- mice (in vivo)
Procedure: Here, vitamin D receptor-mediated skin inflammation was induced in Involucrin (lvl) -/- mice and vitamin D receptor function in the epidermis was evaluated (see e.g., FIG. 14). It was shown that vitamin D receptor-induced inflammation is reduced in lvl^-/- skin (see e.g., FIG. 15). […] Basophils are a major source of IL-4 and IL-6 expression that drives skin inflammation (see e.g., FIG. 21).

[3] = tested on: keratinocytes; assay: IVL peptide protection against keratinocyte cell (detergent) lysis; format: cell-based; conditions: keratinocytes treated with IVL late repeat peptide
[4] = tested on: keratinocytes; assay: Keratinocyte barrier function after IVL peptide treatment; format: cell-based; conditions: keratinocytes treated with IVL peptide

| Compound | nuclear localization of vitamin D receptor [1] | CD4+ T cells ([2]; MC903-treated lvl-/- skin) | cell type populations (scRNA-seq) ([2]; MC903-treated lvl-/- skin) | vitamin D receptor induced inflammation ([2]; MC903 treatment, lvl-/- skin compared to WT) | protection against keratinocyte cell lysis [3] | protection against keratinocyte cell lysis ([3]; listed as IVL late repeat peptide) | protection against keratinocyte cell lysis ([3]; listed as “late” repeat IVL peptide) | keratinocyte barrier function [4] |
| --- | --- | --- | --- | --- | --- | --- | --- | --- |
| C=C1/C(=C\C=C2/CCC[C@]3(C)[C@@H]([C@H](C)/C=C/[C@@H](O)C4CC4)CC[C@@H]23)C[C@@H](O)C[C@@H]1O [MC903] | loss of nuclear localization of vitamin D receptor | significantly decreased | Decreased basophils, macrophages, CD4^+ T cells, and basal II keratinocytes, and increased suprabasal keratinocytes | significantly reduced as early as day 6 |  |  |  |  |
| ELPEQQEGQL (ELPEQQEGQL-NH2) [IVL peptide] |  |  |  |  | protects against keratinocyte cell lysis | protects the keratinocyte from detergent lysis | resistant to detergent lysis | improves keratinocyte barrier function |
